This note sets out measurements from ChEMBL document CHEMBL2157996, “Thioglycine and L-thiovaline: biologically active H₂S-donors” (Bioorg Med Chem, 2012).

Active and inactive are the calls of the source. The calls are words filed in the database; no cut-off is given here.

Series [1] in a line: Vasodilatory activity in Wistar rat RASMC cells assessed as increase in cGMP levels up to 3 mM after 5 mins by enzyme immunoassay. Format: functional, cell-based.
Series [2] is described as follows: Stability of the compound assessed as compound remaining at 40 degC after 60 hrs by NMR spectroscopy in the presence of NaHCO3. Format: physicochemical. The note with it: NaHCO3 present; read-out: Stability.
The nature of series [3]: Stability of the compound assessed as compound remaining at 25 degC after 24 hrs by NMR spectroscopy in the presence of NaHCO3. Particulars: NaHCO3 present; read-out: Stability. Format: physicochemical.
Series [4] is described as follows: Vasodilatory activity in Wistar rat RASMC cells assessed as increase in cGMP levels at 100 uM after 5 mins by enzyme immunoassay relative to control. Format: functional, cell-based.
Series [5] can be described thus: Induction of H2S production at 100 uM by amperometry. Format: physicochemical.
A short description of series [6]: Induction of H2S production by amperometry. Format: physicochemical.
Series [7] can be described thus: Stability of the compound assessed as compound remaining at 40 degC after 72 hrs by NMR spectroscopy in the presence of NaHCO3. Format: physicochemical. Particulars: NaHCO3 present; read-out: Stability.
A short description of series [8]: Induction of H2S production after 60 mins by thiobimane fluorescent method. The note with it: 1 h. Format: physicochemical.
Series [9] is described as follows: Induction of H2S production at 200 uM measured every 15 sec to 1 min by thiobimane fluorescent method.
Series [10] can be described thus: Stability of the compound assessed as compound remaining at 40 degC after 48 hrs by NMR spectroscopy in the presence of NaHCO3. Format: physicochemical. Particulars: NaHCO3 present; read-out: Stability.
Series [11] deals with Rattus norvegicus. As to the kind of experiment: Induction of H2S release in Sprague-Dawley rat plasma assessed as increase in H2S levels at 5 mg/kg, ip upto 8 hrs by amperometry. Format: functional, organism-based. Also on record: dose 5 mg/kg.
Series [12] in a line: Induction of H2S production after 15 mins by methylene blue method. Format: physicochemical. The note with it: 0.25 h.
Series [13] can be described thus: Stability of the compound assessed as compound remaining at 40 degC after 36 hrs by NMR spectroscopy in the presence of NaHCO3. Format: physicochemical. Particulars: NaHCO3 present; read-out: Stability.
Series [14] can be described thus: Drug degradation in Hanks buffered salt solution assessed as formation of glycine N-carboxyanhydride at 37 degC. Format: physicochemical. Particulars: buffer.
Series [15] deals with Rattus norvegicus. As to the kind of experiment: Induction of H2S release in Sprague-Dawley rat plasma assessed as increase in H2S levels at 5 mg/kg, ip after 30 mins by amperometry. Format: functional, organism-based. Also on record: dose 5 mg/kg.
Series [16] is described as follows: Stability of the compound assessed as compound remaining at 40 degC after 24 hrs by NMR spectroscopy in the presence of NaHCO3. Format: physicochemical. The note with it: NaHCO3 present; read-out: Stability.
The test system of series [17] is Rattus norvegicus. The experiment in a line: Induction of H2S release in Sprague-Dawley rat plasma assessed as increase in H2S levels at 5 mg/kg, ip by amperometry. Format: functional, organism-based. Particulars: TDE = time-dependent effect. Also on record: dose 5 mg/kg.
Series [18] can be described thus: Induction of H2S production by sodium nitroprusside assay. Format: physicochemical.
Series [19] can be described thus: Vasodilatory activity in Wistar rat RASMC cells assessed as increase in cGMP levels after 5 mins by enzyme immunoassay. Format: functional, cell-based.

For the compound `NCC(=O)S` [THIOGLYCIN], the outcome in series [1], in series [11] and in series [15] was Active. For the same compound, in [2], the remaining at 60 h was determined as 72%. Further, the remaining at 24 h in series [3] was determined as 100%; in series [16], 88%. Moreover, in series [4], the fold change (FC) came to 10. Moreover, the Activity entry is “Active” in [5]; “Dose-dependent effect” in series [6]; “Active” in series [8]; “Active” in [9]; “Active” in [12]; “tde” in series [17]. Moreover, the Activity entry is “Active” in series [18] and “Dose-dependent effect” in [19]. Besides, in series [7], the remaining at 72 h amounted to 85%. Moreover, the remaining at 48 h in series [10] came to 76%. Further, the remaining at 36 h in [13] was determined as 83%. The Drug metabolism result in series [14] is reported as “Active”.
On to `CC(C)[C@H](N)C(=O)O`, for which the result in series [4] was inactive.
On to `CC(C)[C@H](N)C(=O)S`, for which the Activity result in series [9] was “Active”; in series [12] it was “Active”; in [19] it was “Dose-dependent effect”. For the same compound, the Drug metabolism result in series [14] is “Active”.
Turning to `NCC(=O)O`, the result in series [4] was inactive.
